Experimental findings from article PMC9386018, “A lymphatic-absorbed multi-targeted kinase inhibitor for myelofibrosis therapy” (Nature Communications, 2022) are described below.

The target in series [1] is 321 human protein kinases (Homo sapiens, UniProt O14986). In words: Single-point broad panel kinome screening (SelectScreen Z'-LYTE and Adapta). In kind it is biochemical. To be noted: PIP5K1B; […] LP-182; [ATP] 10 μM. As for the experimental part:
(§1) Quantitation of kinase inhibition was carried out by Life Technologies (Madison, WI) using the SelectScreen profiling platforms Z’-LYTE^TM and Adapta^TM. Single-point broad panel kinome screening was performed at 2.5 µM LP-182 against all kinases within the Z’-LYTE^TM and Adapta^TM assays (321 kinase isoforms, holoenzymes, or mutant variants). The average percent kinase inhibition from replicate data was ranked low to high, converted to a compatible identifier format, then input into Coral Human Kinome Visualization software for presentation analysis. […] Scaling of evolutionary distance for PI kinases is only relative and is based on literature analysis[62],[63]. Average percent kinome inhibition values from replicate data are supplied in Source Data file. […]. Corrected data was normalized to vehicle treated control values, and dose response percent kinase activity was analyzed by non-linear regression for determination of IC50 values.

Series [2] deals with 321 human protein kinases (Homo sapiens, UniProt O15530). Described as above. The format is biochemical. To be noted: PDK1; […] LP-182; [ATP] 100 μM. As for the experimental part: as §1
The target of series [3] is 321 human protein kinases (Homo sapiens, UniProt O60331). Described as above. The settings on record: PIP5K1C; […] LP-182; [ATP] 10 μM. The format is biochemical. As for the experimental part: as §1
For series [4], the target named is 321 human protein kinases (Homo sapiens, UniProt P42356). Described as above. The format is biochemical. The settings on record: PI4KA (PI4K alpha); […] LP-182; [ATP] 10 μM. As for the experimental part:
as §1

Series [5] addresses 321 human protein kinases (Homo sapiens, UniProt P45983). The series is described as above. The format is biochemical. To be noted: MAPK8 (JNK1); […] LP-182; [ATP] 100 μM. As to the method:
as §1

Series [6] addresses 321 human protein kinases (Homo sapiens, UniProt P45984). Described as above. The format is biochemical. To be noted: MAPK9 (JNK2); […] LP-182; [ATP] 100 μM. As for the experimental part:
as §1

The target in series [7] is 321 human protein kinases (Homo sapiens, UniProt P52564). The series is described as above. The format is biochemical. To be noted: MAP2K6 (MKK6); […] LP-182; [ATP] 100 μM. As for the experimental part:
as §1

Series [8] addresses 321 human protein kinases (Homo sapiens, UniProt Q16539). The series is described as above. The format is biochemical. To be noted: MAPK14 (p38 alpha); […] LP-182; [ATP] 100 μM. As for the experimental part: as §1
In series [9] the target is 321 human protein kinases (Homo sapiens, UniProt Q99755). The series is described as above. In kind it is biochemical. The settings on record: PIP5K1A; […] LP-182; [ATP] 10 μM. As to the method: as §1
Series [10] is described as follows: Compound quantitation in blood and mesenteric lymph nodes. In kind it is in vivo, mouse. The settings on record: female, CD-1, mouse, mesenteric lymph nodes; mice, 30 min after oral 100-1000 mg kg^−1. As to the method:
Whole blood and mesenteric lymph nodes were collected either 30 min or 4 h following compound administration and stored at −20 °C until future processing and analysis by the University of Michigan Pharmacokinetics Core as above, or as outlined below, to determine compound concentrations in each tissue. […] Data was generated from n ≥ 4 individual animals per compound per study group or dose.
Briefly, acetonitrile was added to a final concentration of 60–80% to bone marrow, whole blood, plasma, lymphatic fluid, lymphatic proteo-lipid sub-fractions, or mesenteric lymph node samples for compound extraction. Extraction was performed by shaking and/or bead rupture using a Precellys Evolution tissue homogenizer (Bertin Technologies SAS). […] Optimization of MS and MS/MS parameters for MRM quantitation and maximum sensitivity of individual compounds was performed using SCIEX Analyst software (AB Sciex). […] All LC-MS/MS acquisitions were performed with an independent standard curve for each group of analytes and for each individual run. All solvents utilized were of Optima LC-MS Grade (Fisher Scientific). Data was generated from n ≥ 2 individual animals per compound per study condition or dose.

321 human protein kinases (Homo sapiens, UniProt O14986), sequence (O14986 whole entry, canonical isoform): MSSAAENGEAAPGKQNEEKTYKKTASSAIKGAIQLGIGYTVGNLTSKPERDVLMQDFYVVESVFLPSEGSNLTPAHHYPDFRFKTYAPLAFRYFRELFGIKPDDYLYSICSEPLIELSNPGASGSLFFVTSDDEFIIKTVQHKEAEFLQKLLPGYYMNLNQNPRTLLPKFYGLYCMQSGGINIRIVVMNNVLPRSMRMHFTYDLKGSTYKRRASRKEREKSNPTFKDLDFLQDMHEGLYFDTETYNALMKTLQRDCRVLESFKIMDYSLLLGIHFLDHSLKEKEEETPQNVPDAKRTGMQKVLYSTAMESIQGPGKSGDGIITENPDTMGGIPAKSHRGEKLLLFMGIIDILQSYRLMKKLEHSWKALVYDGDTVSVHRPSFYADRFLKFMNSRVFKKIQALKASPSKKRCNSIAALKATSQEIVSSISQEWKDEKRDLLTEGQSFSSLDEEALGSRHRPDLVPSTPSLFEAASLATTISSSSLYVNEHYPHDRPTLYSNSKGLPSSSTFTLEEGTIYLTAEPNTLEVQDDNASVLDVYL
321 human protein kinases (Homo sapiens, UniProt P45983), sequence (P45983 whole entry): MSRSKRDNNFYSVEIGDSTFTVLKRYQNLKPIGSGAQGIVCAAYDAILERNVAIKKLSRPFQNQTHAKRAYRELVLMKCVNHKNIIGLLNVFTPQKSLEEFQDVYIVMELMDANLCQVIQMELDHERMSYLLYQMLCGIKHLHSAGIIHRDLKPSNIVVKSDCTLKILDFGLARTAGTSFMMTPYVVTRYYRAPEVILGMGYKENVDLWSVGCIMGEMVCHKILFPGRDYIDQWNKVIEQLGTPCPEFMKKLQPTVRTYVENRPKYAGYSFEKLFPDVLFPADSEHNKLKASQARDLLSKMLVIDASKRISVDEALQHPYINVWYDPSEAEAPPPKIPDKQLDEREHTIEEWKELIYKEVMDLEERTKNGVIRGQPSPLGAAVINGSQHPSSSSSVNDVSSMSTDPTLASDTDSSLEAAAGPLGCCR
321 human protein kinases (Homo sapiens, UniProt Q99755), sequence (Q99755 whole entry): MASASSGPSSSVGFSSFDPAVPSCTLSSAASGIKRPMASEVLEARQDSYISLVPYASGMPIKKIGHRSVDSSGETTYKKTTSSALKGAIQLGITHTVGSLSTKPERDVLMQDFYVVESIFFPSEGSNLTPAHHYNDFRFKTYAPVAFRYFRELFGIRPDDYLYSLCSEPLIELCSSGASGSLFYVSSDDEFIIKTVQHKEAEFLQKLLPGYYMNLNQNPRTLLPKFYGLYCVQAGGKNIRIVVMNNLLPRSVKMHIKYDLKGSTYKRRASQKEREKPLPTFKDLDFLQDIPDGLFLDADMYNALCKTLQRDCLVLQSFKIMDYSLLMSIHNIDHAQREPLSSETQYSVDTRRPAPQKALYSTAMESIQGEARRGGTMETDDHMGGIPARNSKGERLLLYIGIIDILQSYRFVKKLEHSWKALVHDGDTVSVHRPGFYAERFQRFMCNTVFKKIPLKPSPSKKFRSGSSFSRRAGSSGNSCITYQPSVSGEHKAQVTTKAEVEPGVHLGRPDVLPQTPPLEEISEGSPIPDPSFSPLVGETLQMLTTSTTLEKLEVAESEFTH
321 human protein kinases (Homo sapiens, UniProt O15530), sequence (O15530 whole entry): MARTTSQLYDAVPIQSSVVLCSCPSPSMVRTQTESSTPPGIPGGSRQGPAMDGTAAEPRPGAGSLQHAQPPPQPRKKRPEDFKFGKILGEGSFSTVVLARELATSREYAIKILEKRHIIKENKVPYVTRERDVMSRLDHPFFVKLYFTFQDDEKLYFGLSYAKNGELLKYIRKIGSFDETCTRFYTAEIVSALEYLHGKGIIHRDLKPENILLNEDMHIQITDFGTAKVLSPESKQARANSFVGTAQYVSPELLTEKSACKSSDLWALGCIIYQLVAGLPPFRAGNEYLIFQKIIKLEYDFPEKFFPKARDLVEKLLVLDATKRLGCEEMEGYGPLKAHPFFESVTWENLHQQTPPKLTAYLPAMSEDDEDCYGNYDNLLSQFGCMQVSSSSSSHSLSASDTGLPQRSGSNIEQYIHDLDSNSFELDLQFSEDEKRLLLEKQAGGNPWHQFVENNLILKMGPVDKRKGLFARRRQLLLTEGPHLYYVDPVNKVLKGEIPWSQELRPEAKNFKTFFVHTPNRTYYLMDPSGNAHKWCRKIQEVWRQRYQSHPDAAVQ
321 human protein kinases (Homo sapiens, UniProt P45984), sequence (P45984 whole entry): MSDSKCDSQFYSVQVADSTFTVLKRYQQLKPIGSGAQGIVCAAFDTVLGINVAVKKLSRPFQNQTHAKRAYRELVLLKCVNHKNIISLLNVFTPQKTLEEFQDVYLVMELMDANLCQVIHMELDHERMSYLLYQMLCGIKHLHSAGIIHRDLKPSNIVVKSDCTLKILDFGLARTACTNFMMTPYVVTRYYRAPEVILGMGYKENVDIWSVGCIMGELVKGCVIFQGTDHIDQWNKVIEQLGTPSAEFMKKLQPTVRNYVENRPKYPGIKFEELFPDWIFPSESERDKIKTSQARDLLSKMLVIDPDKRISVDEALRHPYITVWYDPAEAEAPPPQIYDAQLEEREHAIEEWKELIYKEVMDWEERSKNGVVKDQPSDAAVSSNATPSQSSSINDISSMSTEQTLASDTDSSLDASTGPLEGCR
321 human protein kinases (Homo sapiens, UniProt P52564), sequence (P52564 whole entry): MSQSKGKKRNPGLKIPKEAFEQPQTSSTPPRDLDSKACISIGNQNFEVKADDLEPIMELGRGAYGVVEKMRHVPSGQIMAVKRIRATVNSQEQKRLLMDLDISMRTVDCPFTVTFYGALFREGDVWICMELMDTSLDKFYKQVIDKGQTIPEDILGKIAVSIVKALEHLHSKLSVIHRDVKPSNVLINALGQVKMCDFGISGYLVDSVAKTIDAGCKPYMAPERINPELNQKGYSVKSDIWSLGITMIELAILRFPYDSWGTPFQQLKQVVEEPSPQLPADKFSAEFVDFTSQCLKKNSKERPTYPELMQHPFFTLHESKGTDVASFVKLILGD
321 human protein kinases (Homo sapiens, UniProt Q16539), sequence (Q16539 whole entry): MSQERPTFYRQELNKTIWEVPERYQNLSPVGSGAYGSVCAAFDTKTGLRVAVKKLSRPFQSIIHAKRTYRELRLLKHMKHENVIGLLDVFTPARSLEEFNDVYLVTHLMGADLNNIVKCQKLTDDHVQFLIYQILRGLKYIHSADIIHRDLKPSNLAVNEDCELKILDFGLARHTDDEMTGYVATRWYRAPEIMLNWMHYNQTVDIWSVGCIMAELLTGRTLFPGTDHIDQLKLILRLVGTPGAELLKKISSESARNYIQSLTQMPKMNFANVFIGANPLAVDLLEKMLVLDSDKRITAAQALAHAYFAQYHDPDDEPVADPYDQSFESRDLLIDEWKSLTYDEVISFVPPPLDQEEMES
321 human protein kinases (Homo sapiens, UniProt O60331), sequence (O60331 whole entry): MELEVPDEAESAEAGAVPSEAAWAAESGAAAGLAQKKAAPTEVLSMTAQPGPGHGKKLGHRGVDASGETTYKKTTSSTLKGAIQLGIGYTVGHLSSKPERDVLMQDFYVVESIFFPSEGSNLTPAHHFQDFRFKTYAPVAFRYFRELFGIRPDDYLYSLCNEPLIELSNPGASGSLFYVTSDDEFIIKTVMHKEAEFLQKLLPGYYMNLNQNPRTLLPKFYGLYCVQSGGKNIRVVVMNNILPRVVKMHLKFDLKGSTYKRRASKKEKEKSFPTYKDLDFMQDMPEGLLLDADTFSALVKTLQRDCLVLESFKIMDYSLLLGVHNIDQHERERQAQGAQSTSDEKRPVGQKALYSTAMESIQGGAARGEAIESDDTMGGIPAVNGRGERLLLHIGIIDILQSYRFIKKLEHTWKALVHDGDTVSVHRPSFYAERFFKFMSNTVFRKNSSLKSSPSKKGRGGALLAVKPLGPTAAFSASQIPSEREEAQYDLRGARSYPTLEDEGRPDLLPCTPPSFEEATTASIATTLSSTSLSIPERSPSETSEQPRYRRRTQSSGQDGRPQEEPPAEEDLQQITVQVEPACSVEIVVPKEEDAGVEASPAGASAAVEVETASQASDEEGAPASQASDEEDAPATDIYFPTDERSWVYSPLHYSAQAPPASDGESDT

Take `O=C(NOCCOCCOCCOCCC(=O)N1CCN(c2cnc3ccc(-c4cnc(Cl)c(NS(=O)(=O)c5ccc(F)cc5)c4)cc3n2)CC1)c1ccc(F)c(F)c1Nc1ccc(I)cc1F` [LP-182, N-(2-(2-(2-(3-(4-(7-(6-chloro-5-((4-fluorophenyl)sulfonamido)pyridin-3-yl)quinoxalin-2-yl)piperazin-1-yl)-3-oxopropoxy)ethoxy)ethoxy)ethoxy)-3,4-difluoro-2-((2-fluoro-4-iodophenyl)amino)benzamide]: the % Inhibition (as a rule, the drop in the measured response relative to a control, in per cent) in series [1] is 14%. Further, the inhibition (commonly the change of the read-out against control, counted positive when it falls) at […] is 13% in series [1]; 15% in [2]; 28% in [3]; 24% in series [4]; 15% in [5]; 2.22% in series [6]. Moreover, the inhibition at […] is 16% in [7], 22% in [8] and 26% in series [9]. Moreover, the concentration at 30 min in series [10] was in the range of 5 to 15 µM.
